From ChEMBL document CHEMBL1150663, “Pachastrissamine, a cytotoxic anhydrophytosphingosine from a marine sponge, Pachastrissa sp” (J Nat Prod, 2002)

Assays:
Format in all cases: functional, cell-based
P388 = assay: Cytotoxicity against mouse P388 cells after 3 days; conditions: P388, 72 h
A549 = assay: Cytotoxicity against human A549 cells after 3 days; conditions: A549, 72 h
HT-29 = assay: Cytotoxicity against human HT-29 cells after 3 days; conditions: HT-29, 72 h
SK-MEL-28 = assay: Cytotoxicity against human SK-MEL-28 cells after 3 days; conditions: SK-MEL-28, 72 h

Measured: IC50

CCCCCCCCCCCCCC[C@@H]1OC[C@H](N)[C@@H]1O [PACHASTRISSAMINE]
0.01 mg/L: all assays above
